Assay results from the NIST ThermoML archive (doi:10.1016/j.fluid.2007.08.010).
Numbers after ± are expanded uncertainties.

Assay: xn = mol fraction of the nth substance listed
Conditions: Liquid, Falling or rolling sphere viscometry

CCCCCCCCCCCCCC [tetradecane] + c1ccccc1
viscosity [mPa·s]
Conditions | 690 kPa | 5000 kPa | 10000 kPa | 20000 kPa | 30000 kPa | 40000 kPa | 50000 kPa | 60000 kPa
313.2 K, x2 = 0.179 | 1.393 ± 0.057 | 1.461 ± 0.06 | 1.538 ± 0.063 | 1.695 ± 0.069 | 1.86 ± 0.076 | 2.036 ± 0.083 | 2.224 ± 0.091 | 2.434 ± 0.1
313.2 K, x2 = 0.436 | 1.103 ± 0.045 | 1.159 ± 0.047 | 1.223 ± 0.05 | 1.347 ± 0.055 | 1.473 ± 0.06 | 1.6 ± 0.065 | 1.729 ± 0.071 | 1.866 ± 0.076
313.2 K, x2 = 0.602 | 0.905 ± 0.037 | 0.955 ± 0.039 | 1.011 ± 0.041 | 1.118 ± 0.046 | 1.225 ± 0.05 | 1.329 ± 0.054 | 1.432 ± 0.058 | 1.535 ± 0.063
313.2 K, x2 = 0.798 | 0.679 ± 0.028 | 0.712 ± 0.029 | 0.753 ± 0.031 | 0.835 ± 0.034 | 0.916 ± 0.037 | 1 ± 0.041 | 1.081 ± 0.044 | 1.16 ± 0.047
333.2 K, x2 = 0.179 | 1.045 ± 0.043 | 1.098 ± 0.045 | 1.157 ± 0.047 | 1.273 ± 0.052 | 1.389 ± 0.057 | 1.515 ± 0.062 | 1.657 ± 0.068 | 1.846 ± 0.076
333.2 K, x2 = 0.436 | 0.838 ± 0.034 | 0.884 ± 0.036 | 0.935 ± 0.038 | 1.037 ± 0.042 | 1.135 ± 0.046 | 1.228 ± 0.05 | 1.319 ± 0.054 | 1.421 ± 0.058
333.2 K, x2 = 0.602 | 0.688 ± 0.028 | 0.728 ± 0.03 | 0.775 ± 0.032 | 0.862 ± 0.035 | 0.946 ± 0.039 | 1.032 ± 0.042 | 1.115 ± 0.045 | 1.216 ± 0.05
333.2 K, x2 = 0.798 | 0.528 ± 0.022 | 0.557 ± 0.023 | 0.592 ± 0.024 | 0.661 ± 0.027 | 0.73 ± 0.03 | 0.797 ± 0.032 | 0.863 ± 0.035 | 0.927 ± 0.038
353.2 K, x2 = 0.179 | 0.819 ± 0.034 | 0.855 ± 0.035 | 0.904 ± 0.037 | 0.996 ± 0.041 | 1.08 ± 0.044 | 1.168 ± 0.048 | 1.278 ± 0.052 | 1.391 ± 0.057
353.2 K, x2 = 0.436 | 0.614 ± 0.025 | 0.662 ± 0.027 | 0.705 ± 0.029 | 0.793 ± 0.032 | 0.883 ± 0.036 | 0.956 ± 0.039 | 1.032 ± 0.042 | 1.116 ± 0.046
353.2 K, x2 = 0.602 | 0.537 ± 0.022 | 0.566 ± 0.023 | 0.601 ± 0.025 | 0.668 ± 0.027 | 0.739 ± 0.03 | 0.809 ± 0.033 | 0.878 ± 0.036 | 0.959 ± 0.039
353.2 K, x2 = 0.798 | 0.421 ± 0.017 | 0.443 ± 0.018 | 0.469 ± 0.019 | 0.523 ± 0.021 | 0.578 ± 0.024 | 0.634 ± 0.026 | 0.69 ± 0.028 | 0.745 ± 0.03
373.2 K, x2 = 0.179 | 0.596 ± 0.024 | 0.635 ± 0.026 | 0.678 ± 0.028 | 0.765 ± 0.031 | 0.849 ± 0.035 | 0.926 ± 0.038 | 1.001 ± 0.041 | 1.07 ± 0.044
373.2 K, x2 = 0.436 | 0.485 ± 0.02 | 0.515 ± 0.021 | 0.549 ± 0.022 | 0.62 ± 0.025 | 0.688 ± 0.028 | 0.753 ± 0.031 | 0.819 ± 0.033 | 0.879 ± 0.036
373.2 K, x2 = 0.602 | 0.43 ± 0.018 | 0.452 ± 0.018 | 0.477 ± 0.019 | 0.533 ± 0.022 | 0.59 ± 0.024 | 0.646 ± 0.026 | 0.704 ± 0.029 | 0.761 ± 0.031
373.2 K, x2 = 0.798 | 0.356 ± 0.015 | 0.371 ± 0.015 | 0.389 ± 0.016 | 0.427 ± 0.017 | 0.467 ± 0.019 | 0.509 ± 0.021 | 0.553 ± 0.023 | 0.598 ± 0.024
393.2 K, x2 = 0.179 | 0.466 ± 0.019 | 0.495 ± 0.02 | 0.531 ± 0.022 | 0.601 ± 0.025 | 0.67 ± 0.027 | 0.738 ± 0.03 | 0.804 ± 0.033 | 0.868 ± 0.036
393.2 K, x2 = 0.436 | 0.394 ± 0.016 | 0.419 ± 0.017 | 0.445 ± 0.018 | 0.496 ± 0.02 | 0.554 ± 0.023 | 0.61 ± 0.025 | 0.662 ± 0.027 | 0.717 ± 0.029
393.2 K, x2 = 0.602 | 0.347 ± 0.014 | 0.368 ± 0.015 | 0.39 ± 0.016 | 0.436 ± 0.018 | 0.479 ± 0.02 | 0.524 ± 0.021 | 0.565 ± 0.023 | 0.604 ± 0.025
393.2 K, x2 = 0.798 | 0.307 ± 0.013 | 0.32 ± 0.013 | 0.336 ± 0.014 | 0.367 ± 0.015 | 0.398 ± 0.016 | 0.432 ± 0.018 | 0.466 ± 0.019 | 0.499 ± 0.02
